This note sets out measurements from ChEMBL document CHEMBL5465560, “Selectivity Literature for EUbOPEN Chemogenomic Library” (2024).

Assay [1] concerns the target T1, Serine/threonine-protein kinase greatwall (Homo sapiens) (UniProt Q96GX5).
T1 sequence (whole entry): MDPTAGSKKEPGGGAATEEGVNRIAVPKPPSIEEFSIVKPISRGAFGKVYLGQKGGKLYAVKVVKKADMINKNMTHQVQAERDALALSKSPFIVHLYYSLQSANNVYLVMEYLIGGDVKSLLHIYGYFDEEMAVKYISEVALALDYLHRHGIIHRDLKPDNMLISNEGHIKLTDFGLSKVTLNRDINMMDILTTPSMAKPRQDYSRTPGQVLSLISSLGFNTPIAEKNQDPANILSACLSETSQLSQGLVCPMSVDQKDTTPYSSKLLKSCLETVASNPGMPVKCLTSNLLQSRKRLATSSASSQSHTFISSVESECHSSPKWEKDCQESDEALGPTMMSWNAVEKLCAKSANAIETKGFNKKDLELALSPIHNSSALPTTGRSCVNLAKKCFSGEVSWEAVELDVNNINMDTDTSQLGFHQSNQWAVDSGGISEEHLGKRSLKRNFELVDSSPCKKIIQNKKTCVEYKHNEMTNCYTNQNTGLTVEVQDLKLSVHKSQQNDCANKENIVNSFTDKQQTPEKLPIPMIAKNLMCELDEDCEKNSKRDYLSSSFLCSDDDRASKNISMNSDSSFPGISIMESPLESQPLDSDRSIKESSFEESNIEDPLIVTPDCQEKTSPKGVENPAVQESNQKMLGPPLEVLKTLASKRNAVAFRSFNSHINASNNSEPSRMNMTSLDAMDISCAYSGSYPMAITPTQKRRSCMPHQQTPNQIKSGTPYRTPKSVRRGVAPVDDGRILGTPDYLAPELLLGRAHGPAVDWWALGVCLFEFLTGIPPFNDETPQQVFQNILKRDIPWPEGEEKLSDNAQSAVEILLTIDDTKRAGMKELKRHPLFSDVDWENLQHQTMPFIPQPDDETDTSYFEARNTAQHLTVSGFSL
Briefly: Selectivity interaction (Kinase panel (KiNativ target engagement assay in Jurkat cells)) EUB0001635a MASTL. The assay is classed as cell-based. The note with it: at 1 µM.

Assay [2] concerns the target NT-3 growth factor receptor (Homo sapiens, UniProt Q16288). Description: Selectivity interaction (KinomeScan (DiscoverX)) EUB0001079a NTRK3. The note with it: at 1 µM.
The target in assay [3] is T2, Serine/threonine-protein kinase BRSK1 (Homo sapiens) (UniProt Q8TDC3).
T2 sequence (whole entry): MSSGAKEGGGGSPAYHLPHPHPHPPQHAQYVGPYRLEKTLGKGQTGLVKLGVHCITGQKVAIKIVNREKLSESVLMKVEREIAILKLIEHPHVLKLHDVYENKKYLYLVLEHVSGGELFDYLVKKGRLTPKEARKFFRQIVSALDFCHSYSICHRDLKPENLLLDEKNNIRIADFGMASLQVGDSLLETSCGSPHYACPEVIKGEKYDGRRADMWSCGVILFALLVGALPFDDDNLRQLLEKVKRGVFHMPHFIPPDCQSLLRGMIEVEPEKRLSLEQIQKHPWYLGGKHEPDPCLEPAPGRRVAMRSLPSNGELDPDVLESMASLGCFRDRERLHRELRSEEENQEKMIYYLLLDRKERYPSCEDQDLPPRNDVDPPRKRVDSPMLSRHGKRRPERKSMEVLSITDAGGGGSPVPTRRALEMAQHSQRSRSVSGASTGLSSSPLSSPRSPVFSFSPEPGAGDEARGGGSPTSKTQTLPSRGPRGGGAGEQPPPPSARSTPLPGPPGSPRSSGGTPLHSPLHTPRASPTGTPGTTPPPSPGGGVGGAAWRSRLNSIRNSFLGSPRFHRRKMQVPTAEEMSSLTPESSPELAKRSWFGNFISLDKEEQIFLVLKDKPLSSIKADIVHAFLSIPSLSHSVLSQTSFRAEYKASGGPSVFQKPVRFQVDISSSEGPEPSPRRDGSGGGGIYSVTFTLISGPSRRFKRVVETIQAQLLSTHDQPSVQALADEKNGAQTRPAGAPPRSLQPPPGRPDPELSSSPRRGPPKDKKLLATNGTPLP
Briefly: Selectivity interaction (KinomeScan (DiscoverX)) EUB0001619a BRSK1. The note with it: at 1 µM.

The target in assay [4] is T3, Tyrosine-protein kinase Mer (Homo sapiens) (UniProt Q12866).
T3 sequence (whole entry): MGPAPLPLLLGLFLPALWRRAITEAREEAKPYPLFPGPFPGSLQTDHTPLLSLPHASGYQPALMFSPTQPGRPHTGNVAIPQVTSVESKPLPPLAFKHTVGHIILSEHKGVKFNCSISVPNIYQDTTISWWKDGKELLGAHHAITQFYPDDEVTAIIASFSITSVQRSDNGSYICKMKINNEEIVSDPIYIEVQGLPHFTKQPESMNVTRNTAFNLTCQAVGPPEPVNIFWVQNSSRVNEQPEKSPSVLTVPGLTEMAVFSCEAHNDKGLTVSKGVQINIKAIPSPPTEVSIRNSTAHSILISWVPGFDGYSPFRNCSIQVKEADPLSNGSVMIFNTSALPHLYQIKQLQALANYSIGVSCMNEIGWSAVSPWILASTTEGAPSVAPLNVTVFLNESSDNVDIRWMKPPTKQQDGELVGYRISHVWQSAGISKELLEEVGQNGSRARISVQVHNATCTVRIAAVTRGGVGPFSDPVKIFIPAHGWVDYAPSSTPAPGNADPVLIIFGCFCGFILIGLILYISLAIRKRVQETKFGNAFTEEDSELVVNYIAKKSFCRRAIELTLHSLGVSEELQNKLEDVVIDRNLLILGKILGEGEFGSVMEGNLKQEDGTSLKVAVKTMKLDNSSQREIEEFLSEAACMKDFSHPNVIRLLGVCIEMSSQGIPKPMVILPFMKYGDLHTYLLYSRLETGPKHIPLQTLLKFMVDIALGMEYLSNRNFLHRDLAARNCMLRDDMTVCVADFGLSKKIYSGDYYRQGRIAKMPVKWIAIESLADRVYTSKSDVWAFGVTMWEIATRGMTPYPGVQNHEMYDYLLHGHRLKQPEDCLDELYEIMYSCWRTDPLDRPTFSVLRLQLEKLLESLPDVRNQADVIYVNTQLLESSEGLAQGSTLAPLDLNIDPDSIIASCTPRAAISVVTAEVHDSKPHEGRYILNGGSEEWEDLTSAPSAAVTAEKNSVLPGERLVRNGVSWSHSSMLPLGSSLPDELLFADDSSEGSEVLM
Briefly: Selectivity interaction (KinomeScan (DiscoverX)) EUB0000092b MERTK. The settings on record: at 10 µM.

Assay [5] concerns the target Dual specificity testis-specific protein kinase 1 (Homo sapiens) (UniProt Q15569). Description: Selectivity interaction (KinomeScan (DiscoverX)) EUB0000092b TESK1. The note with it: at 10 µM.

Dual specificity testis-specific protein kinase 1 (Homo sapiens), sequence (Q15569 whole entry, looked up): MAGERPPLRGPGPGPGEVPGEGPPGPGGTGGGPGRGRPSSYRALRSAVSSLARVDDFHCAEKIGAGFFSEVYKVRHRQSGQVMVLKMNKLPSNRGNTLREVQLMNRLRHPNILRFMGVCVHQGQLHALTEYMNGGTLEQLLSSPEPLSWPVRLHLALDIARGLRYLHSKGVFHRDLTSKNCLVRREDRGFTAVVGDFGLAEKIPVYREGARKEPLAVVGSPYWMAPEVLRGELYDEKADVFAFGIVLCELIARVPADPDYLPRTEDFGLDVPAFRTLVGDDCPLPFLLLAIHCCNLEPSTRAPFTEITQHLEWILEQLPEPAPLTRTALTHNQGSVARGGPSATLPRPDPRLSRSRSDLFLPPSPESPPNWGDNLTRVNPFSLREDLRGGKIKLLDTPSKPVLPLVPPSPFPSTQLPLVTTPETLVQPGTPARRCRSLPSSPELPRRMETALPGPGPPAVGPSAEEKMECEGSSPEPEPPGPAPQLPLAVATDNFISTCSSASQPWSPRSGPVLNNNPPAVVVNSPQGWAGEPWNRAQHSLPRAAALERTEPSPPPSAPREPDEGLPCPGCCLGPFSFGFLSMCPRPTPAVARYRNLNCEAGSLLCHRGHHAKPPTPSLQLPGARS
NT-3 growth factor receptor, sequence (Q16288 32-839 limits assumed): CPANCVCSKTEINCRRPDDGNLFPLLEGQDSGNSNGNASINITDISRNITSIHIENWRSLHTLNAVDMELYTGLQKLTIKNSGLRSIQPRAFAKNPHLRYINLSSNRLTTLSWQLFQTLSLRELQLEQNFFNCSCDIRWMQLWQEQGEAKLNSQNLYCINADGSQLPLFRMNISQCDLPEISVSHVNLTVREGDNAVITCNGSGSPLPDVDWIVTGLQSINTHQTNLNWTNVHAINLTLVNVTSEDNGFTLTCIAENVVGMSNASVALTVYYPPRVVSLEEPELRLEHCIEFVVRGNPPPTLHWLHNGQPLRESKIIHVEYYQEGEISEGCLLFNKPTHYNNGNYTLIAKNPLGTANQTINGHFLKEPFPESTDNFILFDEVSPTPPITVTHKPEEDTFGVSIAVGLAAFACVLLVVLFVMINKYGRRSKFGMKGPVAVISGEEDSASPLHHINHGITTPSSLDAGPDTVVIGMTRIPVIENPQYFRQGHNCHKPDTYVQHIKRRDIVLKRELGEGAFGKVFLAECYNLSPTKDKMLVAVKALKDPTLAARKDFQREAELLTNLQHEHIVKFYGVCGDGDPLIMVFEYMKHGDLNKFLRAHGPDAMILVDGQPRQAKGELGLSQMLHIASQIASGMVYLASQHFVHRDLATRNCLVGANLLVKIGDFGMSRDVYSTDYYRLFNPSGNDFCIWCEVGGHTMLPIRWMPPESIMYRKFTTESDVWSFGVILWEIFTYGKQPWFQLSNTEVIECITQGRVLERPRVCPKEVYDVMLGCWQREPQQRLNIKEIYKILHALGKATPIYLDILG

On to `C=CC(=O)Nc1ccc(C(=O)Nc2[nH]nc3c2CN(C(=O)N[C@H](CN(C)C)c2ccccc2)C3(C)C)cc1`, for which, in assay [1], the % of engagement was 5.2%. `Nc1cnc(N2CCc3cc(S(=O)(=O)Nc4c(F)cc(Cl)cc4F)cc(N4CCCC4=O)c32)nc1` [TP-020n]: the % of control in assay [2] came to 97%. In assay [3], `N#Cc1cccc(-c2c[nH]c3ncnc(N4CCOCC4)c23)c1` showed a % of control of 100%. For the compound `CCC(=O)N1CCN(c2ccc(-n3c(=O)ccc4cnc5ccc(-c6cnc7ccccc7c6)cc5c43)cc2C(F)(F)F)CC1`, the % of control in assay [4] was 53%; in assay [5] it was 58%.
